Test: Recovery of paclitaxel added to mixtures after heating to 55° C. for 1 hour (reverse phase HPLC with UV detection)
Format: physicochemical
Procedure: The desirability of removing unreacted starting materials and/or acidic reaction by-products can be seen by reference to the data in Table 1. […] According to the data, when paclitaxel is combined with a diblock copolymer having up to 2% residual monomer and up to 0.2 μmol/mg acid content (expressed as the number of protons titrated in a solution prepared by dissolving 1 mg of diblock copolymer in water), after heating, only 95% of the paclitaxel initially added to the mixture could be recovered, as quantified using a reverse phase HPLC assay with UV detection and a taxane optimized C18 column.

CC(=O)O[C@H]1C(=O)[C@@]2(C)[C@H]([C@H](OC(=O)c3ccccc3)[C@]3(O)C[C@H](OC(=O)[C@H](O)[C@@H](NC(=O)c4ccccc4)c4ccccc4)C(C)=C1C3(C)C)[C@]1(OC(C)=O)CO[C@@H]1C[C@@H]2O [paclitaxel]
Paclitaxel recovered after heating (combined with diblock copolymer having up to 2% residual monomer and up to 0.2 μmol/mg acid content): 95%
Paclitaxel recovered after heating (combined with methoxypolyethylene glycol, no measured acidic components and no DL-lactide monomer): 99%
Paclitaxel recovered after heating (diblock copolymer with greatly reduced quantities of residual monomer and acidic components): 98%
